In US20210038577A1, “THIOREDOXIN REDUCTASE INHIBITORS FOR USE IN THE TREATMENT OF CANCER” (Cinda Pharma AB, priority 2018, published 2021):

Experiments:
Trx in MDA-MB-231 cells = assay: Intracellular Trx levels by ELISA in MDA-MB-231 tumor cells; format: cell-based, human
Protocol: The human mammary carcinoma cell line MDA-MB-231 was obtained from the American Type Culture Collection (ATCC; Manassas, Va.) and cultured in Leibovitz's L-15 medium (Thermo Fisher Scientific, USA) supplemented with 10% (v/v) heat-inactivated fetal bovine serum (Thermo Fisher Scientific, USA), 10 mM HERBS (Sigma), 25 mM sodium bicarbonate (Sigma), 1× Glutamax (Sigma), 100 IU/mL penicillin and 100 μg/ml streptomycin (Sigma) in a 5% CO2 atmosphere at 37° C. Briefly, cells were seeded at 7500 cells/well in 96-well plates. After 24 h, the cells were treated either with different concentrations of test compounds or DMSO (0.5%; vehicle control) respectively and further incubated at 37° C. in a CO2 incubator. Culture supernatants were collected at different time points, like, immediately after cell plating (−24 h), 0 h (at the time of compound addition), and 1 h, 6 h, 12 h, 24 h, 48 h, 72 h and 96 h following compound addition. Subsequently, cells were lysed from corresponding wells with 0.1% Triton X-100 and the lysates were collected. Trx levels were measured in both the culture supernatants and cell lysates by ELISA using TXN (Human) ELISA Kit [Abnova; Cat no: KA0535] following manufacturer instruction. A standard curve was prepared using different concentrations of the Trx standard (provided in the kit) with the help of GraphPad Prism software (version 5.0; La Jolla, Calif., USA). Trx concentrations for the unknown samples were calculated from the standard curve. The data were expressed as the means of three replicates.

[1] = tested on: NB-4 (a leukaemia cell line); assay: MTT cell viability assay, NB-4; format: cell-based; settings: 72 hrs
Protocol: (§1) MDA-MB-453 (ATCC HTB-131) cells were grown in media with sodium pyruvate. MDA-MB-231 cells (ATCC HTB-26) were grown in DMEM media or L-15 supplemented with Glutamax (1×). U87-MG (ATCC HTB-14) and MDA-MB-468 (ATCC HTB-132) cells were cultured in DMEM supplemented with Glutamax (1×). NB-4 (DSMZ ACC-207) cells were cultured in RPMI 1640.
(§2) Breast cancer and glioblastoma cell lines were plated 4000 cells/well in 96-well plates in the presence of 10% FBS media. The following day cells were treated with various concentrations of the example compounds (0.1% DMSO final) and incubated for 72 hrs. After the incubation an MTT assay was performed to access cell viability. Percent of viability was determined using DMSO vehicle and no cell (blank) controls.

GR from baker's yeast = molecular target: T1, GR from baker's yeast (Saccharomyces cerevisiae, UniProt P41921); assay: Glutathione reductase (GR) activity assay; format: biochemical; settings: Molar concentration
T1 sequence (P41921 17-483 limits assumed): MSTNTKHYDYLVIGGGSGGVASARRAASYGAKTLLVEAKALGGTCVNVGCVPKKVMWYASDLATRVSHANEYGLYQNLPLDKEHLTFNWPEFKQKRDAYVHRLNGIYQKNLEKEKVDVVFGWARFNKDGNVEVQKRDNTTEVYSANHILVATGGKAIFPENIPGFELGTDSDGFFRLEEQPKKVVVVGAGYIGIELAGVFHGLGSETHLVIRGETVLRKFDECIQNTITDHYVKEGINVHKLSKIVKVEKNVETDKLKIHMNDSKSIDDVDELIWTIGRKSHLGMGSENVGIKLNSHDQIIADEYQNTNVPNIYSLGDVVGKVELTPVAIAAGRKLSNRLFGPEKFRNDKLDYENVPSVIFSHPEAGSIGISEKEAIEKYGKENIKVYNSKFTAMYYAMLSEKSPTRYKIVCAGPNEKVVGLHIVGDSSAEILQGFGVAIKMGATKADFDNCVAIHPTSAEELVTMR
Protocol: GR activity was determined incubating compounds at various concentrations with GR from baker's yeast and 250 μM NADPH for 15 minutes, whereupon 10 mM oxidized glutathione (GSSG) was added to each well and NADPH consumption was followed at OD340. Activity was determined following the consumption of NADPH over time and normalized to DMSO only (Vehicle) and GR lacking (blank) controls.

recombinant TrxR [2] = molecular target: T2, recombinant TrxR (Rattus norvegicus, UniProt O89049); assay: Sec-independent SecTRAP activity (Juglone assay); settings: compound at the concentration that achieves 100% inhibition of TrxR in the DTNB assay
T2 sequence (O89049 1-499): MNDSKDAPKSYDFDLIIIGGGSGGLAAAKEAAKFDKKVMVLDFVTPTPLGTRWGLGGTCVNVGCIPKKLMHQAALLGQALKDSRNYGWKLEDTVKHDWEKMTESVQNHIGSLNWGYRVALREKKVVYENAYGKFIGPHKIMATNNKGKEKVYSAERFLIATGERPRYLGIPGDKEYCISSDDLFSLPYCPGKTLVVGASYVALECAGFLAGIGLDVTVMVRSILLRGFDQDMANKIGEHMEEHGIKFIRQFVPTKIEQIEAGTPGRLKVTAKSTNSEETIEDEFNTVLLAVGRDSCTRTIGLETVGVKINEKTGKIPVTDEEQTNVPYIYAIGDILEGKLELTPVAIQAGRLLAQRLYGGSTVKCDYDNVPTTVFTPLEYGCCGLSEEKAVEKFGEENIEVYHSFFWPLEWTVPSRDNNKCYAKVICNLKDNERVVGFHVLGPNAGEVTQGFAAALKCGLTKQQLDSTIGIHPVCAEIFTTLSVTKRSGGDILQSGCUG
Protocol: (§3) SecTRAP forming capabilities of compounds with TrxR was determined using the Juglone Assay. Compounds were incubated in the presence of recombinant TrxR and 250 μM NADPH for 15 minutes at concentrations fully inhibiting enzyme activity in the DTNB assay. 100 μM juglone was then added to each well and NADPH consumption was followed at OD340 to determine sustained reductive capacity at the N-terminus of TrxR (SecTRAP Activity). Activity was determined following the consumption of NADPH over time and normalized to DMSO only (Vehicle) and TrxR lacking (blank) controls.
(§4) Aliquots were used in a DTNB assay to determine inhibition of enzyme activity. […] Incubation samples were then added to a reaction buffer containing 250 μM NADPH and 100 μM juglone, whereupon NADPH consumption was followed at OD340 to determine sustained SecTRAP activity.
(§5) Higher % values for juglone activity (juglone reduction activity) in this assay are indicative of stronger prooxidant activity.

MDA-MB-231 cells = assay: Alamar-Blue cell viability assay; format: cell-based, human; settings: 72 hrs
Protocol: MDA-MB-231 cells were plated 2000 cells/well in 96-well black optical plates in the presence of 10% FBS media containing 25 nM selenite. The following day cells were treated with various concentrations of compounds (0.1% DMSO final) and incubated for 72 hrs. After the incubation Alamar Blue reagent was added to each well and incubated for additional 3 hrs. Fluorescence was read ex:530 nm/em:590 nm, and percent of viability was determined using DMSO vehicle and no cell (blank) controls.

recombinant TrxR [3] = molecular target: T2, recombinant TrxR
Protocol: as §3, §4, §5

[4] = tested on: MDA-MB-468 (a breast cancer cell line); assay: MTT cell viability assay, MDA-MB-468; format: cell-based; settings: 72 hrs
Protocol: as §1, §2

[5] = tested on: MDA-MB-231 (a breast cancer cell line); assay: MTT cell viability assay, MDA-MB-231; format: cell-based, human; settings: 72 hrs
Protocol: as §1, §2

[6] = tested on: U-87 MG (a glioblastoma cell line); assay: MTT cell viability assay, U-87 MG; format: cell-based; settings: 72 hrs
Protocol: as §1, §2

SMILES | IC50 [1] | IC50 (GR from baker's yeast) | Juglone Act (% @ 100% DTNB inhibition) (recombinant TrxR [2]) | intracellular levels of Trx compared with control cells (Trx in MDA-MB-231 cells; at 1 μM and 10 μM) | time after which intracellular Trx is reduced compared with control cells (Trx in MDA-MB-231 cells; at 1 μM and 10 μM) | time after which intracellular Trx is reduced compared with control cells (Trx in MDA-MB-231 cells; at 1 μM) | time after which intracellular Trx is reduced compared with control cells (Trx in MDA-MB-231 cells; at 10 μM) | also measured
CC(=O)OC[C@H]1O[C@@H]([S-])[C@H](OC(C)=O)[C@@H](OC(C)=O)[C@@H]1OC(C)=O.CCP(CC)CC.[Au+] [Auranofin, reference compound] | – | > 30000 nM | – | – | – | – | – | IC50 (MDA-MB-231 cells): 1400 nM; classification as SecTRAP forming agent (recombinant TrxR [3]): SecTRAP-forming agent; IC50 [4]: 310 nM; IC50 [5]: 1660 nM; IC50 [6]: 1720 nM
O=C1C=C[C@H]2[C@@H]3C(=O)N(Cc4ccccc4)C(=O)[C@@H]3[C@@H]1N2Cc1ccccc1 (relative stereo) [OT-2056, exo-4,11-Dibenzyl-4,11-diazatricyclo[5.3.1.0^2,6]undec-9-ene-3,5,8-trione] | 420 nM | > 30000 nM | 107.692% | reduced | – | 24 h | 6 h | –
CC[S+]([O-])c1nc(OC)ccc1[N+](=O)[O-] (stereo not drawn) [OT-1131, 2-(ethylsulfinyl)-6-methoxy-3-nitropyridine] | – | – | – | reduced | ≤ 6 h | – | – | –

The next lines start with results.

IC50 [1] | IC50 (GR from baker's yeast) | Juglone Act (% @ 100% DTNB inhibition) (recombinant TrxR [2]) | SMILES | intracellular levels of Trx compared with control cells (Trx in MDA-MB-231 cells; at 1 μM and 10 μM) | time after which intracellular Trx is reduced compared with control cells (Trx in MDA-MB-231 cells; at 1 μM and 10 μM) | time after which intracellular Trx is reduced compared with control cells (Trx in MDA-MB-231 cells; at 1 μM) | time after which intracellular Trx is reduced compared with control cells (Trx in MDA-MB-231 cells; at 10 μM) | also measured
1210 nM | > 30000 nM | 83.67% | COc1ccc([N+](=O)[O-])c(S(=O)(=O)Cc2ccccc2)n1 [OT-1011, 2-Benzylsulfonyl-6-methoxy-3-nitropyridine] | reduced | 6 to 12 h | – | – | –
1170 nM | > 30000 nM | 91.16% | COC(=O)CCS(=O)(=O)c1nc(OC)ccc1[N+](=O)[O-] [OT-1113, methyl 3-((6-methoxy-3-nitropyridin-2-yl)sulfonyl)propanoate] | reduced | – | 48 h | 65 h | –
– | > 30000 nM | 89.8% | COc1ccc([N+](=O)[O-])c(S(=O)(=O)c2ccccn2)n1 [OT-1012, 6-Methoxy-3-nitro-2-(pyridin-2-ylsulfonyl)pyridine] | – | – | – | – | intracellular levels of Trx compared with control cells (Trx in MDA-MB-231 cells; at all doses): reduced; time after which intracellular Trx is reduced compared with control cells (Trx in MDA-MB-231 cells; at all doses): 12 h; IC50 ([6]; Homo sapiens, U-87 MG): 8200 nM
